In assay [1] the test system is HO-1, GRHPR, PGC-1a and NRF1 pathway genes. Put plainly: Gene expression in peripheral leukocytes after 4.5-day administration, Example 5b. Type of assay: in vivo, human. As for the experimental part:
FIG. 13a: In this 4.5-day experiment samples of peripheral leukocytes were collected from standard blood sample of S1 and S9 in fasting condition (0 h), and 1 hour (1 h) after taking 75 grams of glucose (Glutole, Biofile Pharma, 330 ml) for glucose tolerance test. After the collection of the blood samples the leukocytes were immediately separated, and after separation immediately lysed by stop solution and stored in freezer in line with the instructions by the service provider.
Gene expression was measured from those peripheral leukocyte (=white blood cells). Additionally, basal (=0-Control) gene expression of all genes was later measured for S1. This was done using a different gene expression method for genome wide sequencing.
The doses used were 250 mg taken twice a day, in the morning and before going to bed. The last DGA dose was double in size (some 8 mg/kg), and it was taken in the same morning as the collection of blood samples. Relatively high dose and 2.5 hours to measurement was chosen to see clearer dose response in gene expression from peripheral leukocytes.
In the FIG. 13a it is shown that UTPfsAEM gene expressions are activated markedly in peripheral leukocytes after 4.5 day DGA Activation compared to 0-control. The analysis of selected genes was conducted both in fasting conditions and 1 h after glucose intake (“fed” in FIG. 13a)) and in acute dosing, i.e. only 2.5 hours from last DGA dose.

A further assay has as its system CRP. The assay is described as follows: Blood CRP in healthy mice, 4-day test. It is filed as in vivo. The settings on record: 65 mg/kg/day in chow, 4 days, N=8; pairwise one-sided t-test p-value=0.04. As for the experimental part: In this Example, CRP results from 3 separate preclinical tests are presented and analyzed. First 4-day CRP test was conducted with 8 healthy mice using individuals as their own controls. Second 7-day CRP test was conducted in discontinuous disease model. And third also 7-day CRP test was conducted in continuous disease model. CRP present in mouse serum samples were analyzed using mouse CRP ELISA kit (GWB-3B960E, Genway Biotech Inc.). All blood samples were collected at the same time of the day.
For evaluating possible effect of the DGA Activation in health, a 4-day test with healthy mice in Charles River Labs, Kuopio test facilities were conducted. In this test (prior initiation of the MPTP -model) the DGA was mixed into chow at the concentration of 65 mg/kg/day.

The test system of assay [2] is primary human hepatocytes. The assay is described as follows: Net ROS generation in human primary hepatocytes. The settings on record: donors. Type of assay: cell-based. As for the experimental part: D-glycerate is coded as RH013001 in the graph. […] ARE -activation happens when Nrf2 detaches from cytosolic KEAP1 enzyme and moves to nucleus (SCHEME B).
FIG. 13b: Gene Expression results from Primary Hepatocytes after 48 h+2 h of the DGA Activation vs. 0-control. […] Combined test for PGC-1a yielded P-value of some 10%. Primary human hepatocytes were purchased from Celsis In Vitro Technologies (1450 South Rolling Road Baltimore, Md. 21227, USA). Primary hepatocytes were received from three different post mortem human donators. […] This is also the case for DOO.

For a further assay, the system named is intraocular pressure. Put plainly: Intraocular pressure (IOP) in glaucoma, S1. It is filed as in vivo, human. An excerpt:
FIG. 12: Numerical values of the reduction in IOP in Glaucoma after DGA Administration.
The same seems to be true for the efficacy of glaucoma therapy in FIG. 12.

The subject of assay [3] is seasonal flu or similar infectious disease. Type of assay: in vivo, human.

Consider `O=C(O)[C@H](O)CO` [DGA, D-glyceric acid], for which the GRHPR gene expression result in assay [1] (fasting and fed, after 4.5 days) was “upregulated very significantly”. Moreover, in assay [1] (fasting and fed, after 4.5 days, 2.5 hours from last dose), the HO-1 gene expression result is recorded as “upregulated very significantly”. Also, the “genes related to PGC-1a and NRF1 pathways” value in assay [1] (fasting, after 4.5 days vs 0-control) is on record as “activated statistically very significantly”. Also, in assay [1] (peripheral leukocytes in vivo), the “increase of HO-1 expression” value is given as “more than 100%”. The “blood CRP vs own starting level” value in the assay with CRP was “overall decline in CRP was statistically significant”. The “net ROS generation” value in assay [2] was “declined for both JGM and CDP statistically very significantly”. For the same compound, the “IOP reduction, sufficiency of acute dose” value with intraocular pressure (acute dose 1*200 mg) was “not necessarily sufficient”. Moreover, the “IOP compared to relevant control measurement” value with intraocular pressure (first measurement under the full DGA Activation) was “very significant reduction in IOP”. Also, in assay [3] (S1), the “time to alleviation of all symptoms of two-week long infection” value stood at 24 h and the “time to visible alleviation” value lay within 12 to 24 h. Also, in assay [3] (S1, Monday 0130 pm after 2 doses of 3×200 mg Sunday night and 2×200 mg Monday morning, 37.0 on Sunday), the “body temperature (fever)” value is listed as 36.62 celcius. The compound also came in with a body temperature in assay [3] (S1, Monday 0700 pm) of 36.61 celcius. The “time until prolonged mild disease state disappeared” value in assay [3] (human, in vivo) worked out at 2 days.

The values above are taken from patent publication US20190008810A1, “METHOD FOR PREVENTION, TREATMENT AND ALLEVIATION OF INFECTIOUS DISEASES AND DISORDERS” (REPLICON HEALTH OY, priority 2016, published 2019).
